PMC2150373, “Phase I study of the mitomycin C analogue BMS-181174” (British Journal of Cancer, 1998)
Read-outs that look alike come from different tables or passages of the source.

Key:
[1] = test system: histologically proven advanced cancer
Description: (§1) In a phase I study of 82 patients with confirmed malignancy, we administered BMS-181174 at doses of 0.8-75 mg m-2 by intravenous injection every 28 days. At least three patients were evaluated at each dose level, and 174 courses were administered. […] BMS- 181174, also known as BMY-25067, is a semi-synthetic analogue of MMC created by substitution of the […] amino group by a nitrophenyl disulphide moiety (Figure 1). […] It is not known what form of BMS-181174 enters cells. However, it is possible that, after systemic administration, several forms of the drug in addition to the parent compound may be present, including mixed disulphides with endogenous thiols (such as cysteine, glutathione and methionine), methylated TEMMC and TEMMC disulphide. […] The anti-tumour effects of BMS-1 81174 have been evaluated in vivo (Bradner et al, 1990). […] The selection of the starting dose for the clinical study was based on the toxic low dose (TLD) in the dog.

[2] = test system: patients with histologically proven advanced cancer
Description: as §1

[3] = Pharmacokinetics of total TEMMC in plasma (HPLC, non-compartmental)
Description: as §1

mice [4] = conditions: single intravenous dose, ref Nicaise and Usakewicz, 1989; cited from earlier work
dog = conditions: ref Nicaise and Usakewicz, 1989; cited from earlier work
rats = conditions: of three species tested (mice, rats and dogs) in rats only; ref Bregman et al, 1989; cited from earlier work
B 16 melanoma = conditions: drug and tumour both intraperitoneal, or i.v. against subcutaneous tumour; ref Bradner et al, 1990; cited from earlier work
[5] = test system: subline of L1210 partly resistant to MMC; conditions: ref Bradner et al, 1990; cited from earlier work
[6] = test system: highly MMC-resistant P388; conditions: ref Bradner et al, 1990; cited from earlier work
mice [7] = conditions: respective maximum non-lethal doses in mice; ref Bradner et al, 1990; cited from earlier work
ferrets = conditions: ref Bradner et al, 1990; cited from earlier work
[8] = test system: MMC-resistant tumour cell lines; conditions: in vitro, ref Rockwell et al, 1995, cited from earlier work
[9] = preliminary in vitro studies; presumably disulphide exchange with thiols; cited from earlier work
[10] = test system: patients with solid tumors; conditions: similar doses given by 6-h infusion; ref Planting et al, 1994; cited from earlier work
mice, rats and dogs = conditions: cited from earlier work
patients = conditions: clinical use of MMC, Rabadi et al, 1982, cited from earlier work
[11] = 65 mg m-2, 12 patients all pretreated with chemotherapy
[12] = 75 mg m-2, 14 patients with no prior chemotherapy
[13] = 75 mg m-2, six previously treated patients

CO[C@@]12[C@H](COC(N)=O)C3=C(C(=O)C(C)=C(NCCSSc4ccc([N+](=O)[O-])cc4)C3=O)N1C[C@@H]1N[C@@H]12 [BMS-181174, N-7[2-(4-nitrophenyldithio)ethyl] mitomycin C]
partial response rate ([1]; 3 out of 32 patients treated at 65-75 mg m-2): 9%
treatment discontinued for progressive disease ([1]; 22 out of 32 patients at 65-75 mg m-2): 69%
treatment discontinued because of progressive disease ([1]; 44 of 50 patients treated at 0.8-50 mg m-2): 88%
partial response rate ([1]; 50 patients treated at 0.8-50 mg m-2): 2%
minor response (MR), no. of patients ([1]; Total, 82 patients): 1
partial response (PR), no. of patients ([1]; Total, 82 patients): 4
stable disease (SD), no. of patients ([1]; Total, 82 patients): 8
progressive disease (PD), no. of patients ([1]; Total, 82 patients (10 not evaluable)): 59
overall response rate ([1]; all dose levels (discussion)): 6%
partial response rate ([1]; overall, 4 out of 82 patients, 0.8-75 mg m-2): 5%
Thrombophlebitis, worst grade 0, no. of patients ([2]; 65.0 mg m-2, 12 patients): 7
Thrombophlebitis, worst grade 1, no. of patients ([2]; 65.0 mg m-2, 12 patients): 0
Thrombophlebitis, worst grade 2, no. of patients ([2]; 65.0 mg m-2, 12 patients): 4
Thrombophlebitis, worst grade 3, no. of patients ([2]; 65.0 mg m-2, 12 patients): 1
Thrombophlebitis, worst grade 4, no. of patients ([2]; 65.0 mg m-2, 12 patients): 1
grade 4 anaemia, incidence [2, 11]: 8%
grade 4 thrombocytopenia, incidence [2, 11]: 17%
grade 3-4 anaemia, incidence [2, 12]: 7%
grade 3-4 neutropenia, incidence [2, 12]: 7%
grade 3-4 thrombocytopenia, incidence [2, 12]: 21%
patients with grade 4 thrombocytopenia (total) ([2]; 75 mg m-2, 20 patients): eight
Thrombophlebitis, worst grade 0, no. of patients ([2]; 75.0 mg m-2, 20 patients): 12
Thrombophlebitis, worst grade 1, no. of patients ([2]; 75.0 mg m-2, 20 patients): 0
Thrombophlebitis, worst grade 2, no. of patients ([2]; 75.0 mg m-2, 20 patients): 3
Thrombophlebitis, worst grade 3, no. of patients ([2]; 75.0 mg m-2, 20 patients): 3
Thrombophlebitis, worst grade 4, no. of patients ([2]; 75.0 mg m-2, 20 patients): 2
grade 3-4 anaemia, patients [2, 13]: none
grade 3-4 neutropenia, incidence [2, 13]: 33%
grade 3-4 thrombocytopenia, incidence [2, 13]: 83%
thrombophlebitis, incidence ([2]; 31 patients treated at 7.5-50 mg m-2, generally grade 1-2): 26%
thrombophlebitis of grade 3-4, incidence ([2]; 32 evaluable patients treated at 65-75 mg m-2): 22%
treatment discontinued because of toxicity ([2]; 32 patients at 65-75 mg m-2): 53%
significant reduction in LVEF, incidence ([2]; 62 evaluable patients, all dose levels): 15%
patients who died suddenly with pneumonia/pneumonitis thought drug-related ([2]; 65-75 mg m-2): Three
median nadir times for neutropenia ([2]; 65-75 mg m-2 (discussion)): 15 to 19 days
nadirs for thrombocytopenia (median time) ([2]; 65-75 mg m-2 (discussion)): 16 to 24 days
Haemoglobin, worst WHO grade 1, no. of patients ([2]; 75-T, 6 patients): 2
Haemoglobin, worst WHO grade 2, no. of patients ([2]; 75-T, 6 patients): 4
Haemoglobin, worst WHO grade 3, no. of patients ([2]; 75-T, 6 patients): 0
Haemoglobin, worst WHO grade 4, no. of patients ([2]; 75-T, 6 patients): 0
Neutrophils, worst WHO grade 0, no. of patients ([2]; 75-T, 6 patients): 1
Neutrophils, worst WHO grade 1, no. of patients ([2]; 75-T, 6 patients): 1
Neutrophils, worst WHO grade 2, no. of patients ([2]; 75-T, 6 patients): 2
Neutrophils, worst WHO grade 3, no. of patients ([2]; 75-T, 6 patients): 2
Neutrophils, worst WHO grade 4, no. of patients ([2]; 75-T, 6 patients): 0
Platelets, worst WHO grade 0, no. of patients ([2]; 75-T, 6 patients): 1
Platelets, worst WHO grade 1, no. of patients ([2]; 75-T, 6 patients): 0
Platelets, worst WHO grade 2, no. of patients ([2]; 75-T, 6 patients): 0
Platelets, worst WHO grade 3, no. of patients ([2]; 75-T, 6 patients): 2
Platelets, worst WHO grade 4, no. of patients ([2]; 75-T, 6 patients): 3
Haemoglobin, worst WHO grade 0, no. of patients ([2]; 75-T: 75 mg m-2, prior chemotherapy, 6 patients): 0
Haemoglobin, worst WHO grade 1, no. of patients ([2]; 75-U, 14 patients): 3
Haemoglobin, worst WHO grade 2, no. of patients ([2]; 75-U, 14 patients): 7
Haemoglobin, worst WHO grade 3, no. of patients ([2]; 75-U, 14 patients): 1
Haemoglobin, worst WHO grade 4, no. of patients ([2]; 75-U, 14 patients): 0
Neutrophils, worst WHO grade 0, no. of patients ([2]; 75-U, 14 patients): 10
Neutrophils, worst WHO grade 1, no. of patients ([2]; 75-U, 14 patients): 1
Neutrophils, worst WHO grade 2, no. of patients ([2]; 75-U, 14 patients): 2
Neutrophils, worst WHO grade 3, no. of patients ([2]; 75-U, 14 patients): 0
Neutrophils, worst WHO grade 4, no. of patients ([2]; 75-U, 14 patients): 1
Platelets, worst WHO grade 0, no. of patients ([2]; 75-U, 14 patients): 7
Platelets, worst WHO grade 1, no. of patients ([2]; 75-U, 14 patients): 1
Platelets, worst WHO grade 2, no. of patients ([2]; 75-U, 14 patients): 3
Platelets, worst WHO grade 3, no. of patients ([2]; 75-U, 14 patients): 0
Platelets, worst WHO grade 4, no. of patients ([2]; 75-U, 14 patients): 3
Haemoglobin, worst WHO grade 0, no. of patients ([2]; 75-U: 75 mg m-2, previously untreated, 14 patients): 3
possible renal toxicity (rise in serum creatinine), incidence ([2]; 82 patients, all dose levels): 4%
possible treatment-related deaths ([2]; 82 patients, all dose levels): four
grade 1-2 nausea, number of patients ([2]; 82 patients, with prophylactic antiemetics): 21
moderate or severe emesis (grade 2-3), number of patients ([2]; 82 patients, thirteen of them treated at 65-75 mg m-2): fifteen
time for platelet counts to recover to normal, median ([2]; after 65 mg m-2, range 21-45 days): 25 days
time for granulocyte counts to recover to normal, median ([2]; after 65 mg m-2, range 27-42 days): 34.5 days
time for granulocyte counts to recover to normal, median ([2]; after 75 mg m-2, range 19-43): 22.5 days
time for platelet counts to recover to normal, median ([2]; after 75 mg m-2, range 20-46): 29.5 days
time to nadir blood counts, median ([2]; all dose levels): 15 to 22 days
maximum-tolerated dose ([2]; chemotherapy-naive patients, i.v. every 28 days): 75 mg m-2
Significant reduction in LVEF, no. of patients ([2]; dose 0.8 mg m-2, 4 patients (3 not evaluable)): 0
Significant reduction in LVEF, no. of patients ([2]; dose 1.6 mg m-2, 3 patients (1 not evaluable)): 1
Significant reduction in LVEF, no. of patients ([2]; dose 3.2 mg m-2, 7 patients (0 not evaluable)): 2
Significant reduction in LVEF, no. of patients ([2]; dose 5.0 mg m-2, 5 patients (1 not evaluable)): 1
Significant reduction in LVEF, no. of patients ([2]; dose 7.5 mg m-2, 5 patients (0 not evaluable)): 0
Significant reduction in LVEF, no. of patients ([2]; dose 11.5 mg m-2, 7 patients (2 not evaluable)): 0
Significant reduction in LVEF, no. of patients ([2]; dose 19 mg m-2, 8 patients (3 not evaluable)): 0
Significant reduction in LVEF, no. of patients ([2]; dose 32 mg m-2, 5 patients (1 not evaluable)): 1
Significant reduction in LVEF, no. of patients ([2]; dose 50 mg m-2, 6 patients (2 not evaluable)): 1
Significant reduction in LVEF, no. of patients ([2]; dose 65 mg m-2, 12 patients (3 not evaluable)): 0
Significant reduction in LVEF, no. of patients ([2]; dose 75 mg m-2, 20 patients (4 not evaluable)): 3
thrombophlebitis of grades 1-3, incidence ([2]; dose levels 0.8-19 mg m-2, bolus injection): 13%
dose-limiting toxicity ([2]; i.v. every 28 days): myelosuppression
maximum-tolerated dose ([2]; previously treated patients, i.v. every 28 days): 65 mg m-2
significant reduction in LVEF, incidence ([2]; sixteen evaluable patients at 75 mg m-2): 19%
haematological toxicity (grade >3) ([2]; up to 50 mg m-2): no significant
plasma levels of TEMMC ([3]; 0.8 and 1.6 mg m-2 dose levels, assay lower limit of quantitation 50 ng ml-1): not sufficiently sensitive to quantify plasma levels
dose linearity of pharmacokinetics ([3]; in vivo): dose linear
LD10 (mice [4]): 24.9 mg m-2
toxic low dose (TLD) (dog): 2.5 mg m-2
cardiotoxicity (rats): dose-related cardiotoxicity
anti-tumour activity compared with MMC (B 16 melanoma): superior activity
anti-tumour activity [5]: slight activity
anti-tumour activity [6]: inactive
neutropenia compared with MMC (mice [7]): less neutropenia than MMC
neutropenia and thrombocytopenia compared with MMC (ferrets): less neutropenic and much less thrombocytopenic
toxicity in hypoxic versus aerobic conditions ([8]; unlike MMC): not more toxic in hypoxic than aerobic conditions
activity against MMC-resistant tumour cell lines [8]: active
disappearance in plasma [9]: rapidly
toxicity of 6-h infusion [10]: local venous toxicity with thrombophlebitis and venospasm
preclinical toxicity (mice, rats and dogs; preclinical testing of MMC analogues, ref Bregman et al, 1989): myelosuppression and proteinuria
myelosuppression compared with parent compound MMC (mice, rats and dogs; preclinical, ref Doyle and Vyas, 1990): marginally less myelosuppressive than the parent compound

CO[C@@]12[C@H](COC(N)=O)C3=C(C(=O)C(C)=C(N)C3=O)N1C[C@@H]1N[C@@H]12 [MMC, Mitomycin C]
patients with a rise in serum creatinine (patients; ref Martino et al, 1979, Ratanatharathom et al): 2%
dose-limiting toxicity (patients; ref Carter and Crooke, 1979): myelosuppression
